Reference: the RepoRT retention time repository

Test: Waters ACQUITY UPLC HSS T3, 0.4 mL/min; A: water + 0.1% formic acid; B: acetonitrile + 0.1% formic acid; gradient (min/%B) 0/5 1.5/5 12/95 14/95 14.01/100 17/100
Settings: stereoisomer not certain

Structure (SMILES)	LC retention time [min]
O=S(=O)([O-])CCCCCCCP(CCCCCCCS(=O)(=O)[O-])CN(CP(CCCCCCCS(=O)(=O)[O-])CCCCCCCS(=O)(=O)[O-])c1ccccc1	1.3
CCCCCC=CCC=CCC=CCCCCC(=O)OC(COC(=O)CCCCCCCCCCCCCCC)COP(=O)(O)OCC(O)CO (centres undefined)	13.9
CCCCCCCCCCCCCCCCCC(=O)NC(Cc1ccc(O)cc1)C(=O)O (centres undefined)	9.13
OC1CC2CC(O)C(C1)N2 (centres undefined)	0.818
CC(=CC(O)C1OC1(C)C)C1CCC2(C)C1C(O)CC1C3(C)CCC(O)C(C)(C)C3C(OC3OC(CO)C(O)C(O)C3O)CC12C (centres undefined)	9.9
CCCCCC1OC(=O)C(C(C)CC)N(C)C(=O)C2CCCN2C(=O)C(C(C)C)OC(=O)C(Cc2ccccc2)N(C)C(=O)C(C(C)C)NC(=O)C1C (centres undefined)	9.85
C=C1C(=O)OC2C1CC=C1CC(C)(CCC1OO)C2O (centres undefined)	6.31
CC(=O)C1OC1(O)C(C)=CC=CC(C)=CC=CC=C(C)C=CC=C(C)C=CC1=C(C)CCCC1(C)C (centres undefined)	10.4
CC(C)OC(=O)C(C(=O)OC(C)C)=C1SCCS1	1.14
CCC1OC(=O)C(C)C(OC2CC(C)(O)C(O)C(C)O2)C(C)C(O)C(C)(O)CC(C)C(=O)C(C)C(O)C1C (centres undefined)	9.82
CC1CCC2(C(=O)O)CCC3(C)C(=CCC4C5(C)CC(O)C(OC(=O)C=Cc6ccc(O)cc6)C(C)(C)C5CCC43C)C2C1C (centres undefined)	11
COC1(CCC(C)COC2OC(CO)C(O)C(O)C2O)OC2CC3C4CCC5CC(=O)CCC5(C)C4CCC3(C)C2C1C (centres undefined)	9.93
CCO[SiH](CCCSCCC[SiH](OCC)OCC)OCC	1.02
CCCCCCCCCCCCCCCCCC(=O)OC(CO)COP(=O)(O)OCC(O)CO (centres undefined)	5.64
Nc1cncn1C1OC(COP(=O)(O)O)C(O)C1O (centres undefined)	0.711
C=C1C(=O)OC2C1CCC(=O)CC1(C)CCC(O)OC21 (centres undefined)	6.31
CCCCCCCCCCCCCCCCCCCCCCCCC(=O)NCC(=O)O	9.77
CCCCCC(O)C=CC1=CCC(=O)C1CC=CCCCC(=O)O (centres undefined)	4.99
CC(C)(OC1OC(CO)C(O)C(O)C1O)C1CCC(O)(CO)CC1 (centres undefined)	5.08
CCC(=O)C1CC(C)C2(CC(=O)C3(C)C4=C(CCC32C)C2(C)C=CC(=O)C(C)(CO)C2CC4)O1 (centres undefined)	5.53
CN1CC(=O)NC1=N	0.794
CC1CCC2(C(=O)O)CCC3(C)C(=CC(=O)C4C5(C)CCC(OC(=O)c6ccccc6)C(C)(C)C5CCC43C)C2C1C (centres undefined)	11
CC1(C)OC2(C)C(O)CC1CC2OC1OC(CO)C(O)C(O)C1O (centres undefined)	3.99
CC1(C)OC2(CO)CCC1CC2OC1OC(CO)C(O)C(O)C1O (centres undefined)	3.99

Structure (SMILES)	LC retention time [min]
O=C(O)CCNCC(=O)O	0.786
CN1C2CCC1(O)C(O)C(O)C2O (centres undefined)	1.05
CC(C)=CCCC(C)(O)C1CCC2(C)C1C(O)CC1C3(C)CCC(OC4OC(CO)C(O)C(O)C4OC4OC(CO)C(O)C(O)C4O)C(C)(C)C3CCC12C (centres undefined)	9.82
CCCCCC(O)C=CC1C(O)CC(O)C1CC(=O)CCC(=O)O (centres undefined)	8.51
O=C(Oc1cc(O)cc(O)c1C(=O)O)c1ccc(O)c(O)c1	1.15
CCCCCC(=O)CCC1C=CC(=O)C1CC=CCCCC(=O)O (centres undefined)	4.99
CCC=CCC(O)C=CC=CC=CC=CC(O)C(O)CC=CCCC(=O)O (centres undefined)	5.01
C=CC1(CO)CCC(C(C)(C)OC2OC(CO)C(O)C(O)C2O)O1 (centres undefined)	3.99
CCCCCCC=CCCCCCCCC(=O)OCC(O)COP(=O)(O)OCCN (centres undefined)	4.91
O=C(O)CCCC(O)C=CC=CCCC(O)CC=CCCCCC(O)(O)O (centres undefined)	8.55
CC12CCC(=O)C=C1CCC1C2C(O)CC2(C)C(C(O)CC(=O)O)CCC12 (centres undefined)	5.01
O=C(O)CCCSCCCCSCCCC(=O)O	0.766
CC(=O)C1CCC2C3CCC4CC(=O)CCC4(C)C3CCC12C (centres undefined)	11.8
C=Cc1c2[nH]c(c1C)Cc1[nH]c(c(CCC(=O)O)c1C)Cc1[nH]c(c(C)c1CCC(=O)O)Cc1[nH]c(c(C)c1C=C)C2	4.78
CCCCCCC=CCCCCCCCC(=O)OCC(COP(=O)(O)OCC(O)CO)OC(=O)CCCCCCCC=CCCCCCC (centres undefined)	13
Nc1nc2c(c(=O)[nH]1)NC(C(O)C(O)COP(=O)(O)OP(=O)(O)OP(=O)(O)O)C(O)N2O (centres undefined)	5.68
COC(=O)C12CCC(C)(C)CC1C1=CCC3C4(C)CCC(OC(=O)C=Cc5ccc(OC)cc5)C(C)(C)C4CCC3(C)C1(C)CC2 (centres undefined)	13.1
CCCCCC(O)C=CC=CCC=CCC=CCCCC(=O)NCCS(=O)(=O)O (centres undefined)	4.09
CCCCCCCCC=CCCCCCCCC(=O)OC(CC(=O)[O-])C[N+](C)(C)C (centres undefined)	9.56
CC(C)=CCCC(C)(O)C1CCC2(C)C1C(O)CC1C3(C)CCC(OC4OC(COC5OCC(O)C(O)C5O)C(O)C(O)C4O)C(C)(C)C3CCC12C (centres undefined)	10.8
CC1=C2C(CC3(C)OC3CCC3(C)OC3C2O)OC1=O (centres undefined)	6.31
CCCCCC=CCC(O)C=CC=CCC=CCCCC(=O)NCCS(=O)(=O)O (centres undefined)	4.09
CC(C)=CCCC(C)(OC1OC(CO)C(O)C(O)C1O)C1CCC2(C)C1C(O)CC1C3(C)CCC(OC4OC(CO)C(O)C(O)C4O)C(C)(C)C3CCC12C (centres undefined)	9.82

Further lines, results first:

LC retention time [min]	Structure (SMILES)
0.761	C[N+](C)(C)CCOP(=O)([O-])OCC(O)CO (centres undefined)
3	CC(C)C(=O)OC(CC(=O)[O-])C[N+](C)(C)C (centres undefined)
10.6	CC1=CC(=O)C2(C(C)C)C(=O)C3=C(C(O)C4OC(=O)C35CCCC(C)(C)C45)C12 (centres undefined)
0.838	CCCCCCOC(=O)CC(C)S (centres undefined)
4.43	CC(CCC(=O)NCCS(=O)(=O)O)C1CCC2C3C(O)CC4CC(O)CCC4(C)C3CC(O)C12C (centres undefined)
0.75	CCCCC(S)CCOC (centres undefined)
1.31	CC(C)CC(N)C(=O)O (centres undefined)
1.05	CCC(C)C(N)C(=O)NC(CCC(=O)O)C(=O)O (centres undefined)
0.806	CC(N)C(=O)O (centres undefined)
5.56	CC(C)C(CCC(C)C1CC(O)C2C1(C)CCC1C3(C)CCC(OC4OCC(O)C(O)C4O)CC3C(O)CC12O)OC1OCC(O)C(O)C1O (centres undefined)
0.806	CNCC(=O)O
4.44	CC1=CC(O)CC(C)(C)C1(O)C=CC(C)OC1OC(COC2OCC(O)(CO)C2O)C(O)C(O)C1O (centres undefined)
12.1	CCCCCCC=CC=CCCCCCCCC(=O)OC(COC(=O)CCCCCCCCC(C)C)COP(=O)(O)OCC(O)CO (centres undefined)
1.31	CCC(C)C(N)C(=O)O (centres undefined)
0.806	NCCC(=O)O
4.98	CNc1ccccc1C(=O)OCC(C)C
5.18	CCC(C)C(=O)OC1CC(C)(O)C=C2C=CC(C)C(CCC3CC(O)CC(=O)O3)C21 (centres undefined)
3	CC(C)CC(NC(=O)OC(C)(C)C)C(=O)O (centres undefined)
0.838	CCCC(=O)OCCC(S)CCC (centres undefined)
0.75	C[N+](C)(C)CC(O)CC(=O)[O-] (centres undefined)
0.912	CNC(CCC(=O)O)C(=O)O (centres undefined)
4.98	CN1CC(c2ccc(O)cc2)OC1(C)C (centres undefined)
0.706	CN(C)C
0.772	C[N+](C)(C)CCCC(=O)[O-]
0.706	CC(C)N
4.52	CC(CCc1ccccc1)NCC(O)c1ccc(O)c(C(N)=O)c1 (centres undefined)
4.04	CCC(C)C(=O)OC(CC(=O)[O-])C[N+](C)(C)C (centres undefined)
